Each structure is given as a SMILES string.

What all share (format): cell-based
The target of test [1] is T1, human serotonin transporter (hSERT) (Homo sapiens, UniProt P31645).
T1 construct: expressed in transfected cells
The test can be described thus: Inhibition of 3H-serotonin uptake in HEK-293 cells stably transfected with hSERT. The following applies: HEK-293 hSERT cells, 3H-5HT 50 nM, 5 min incubation, room temperature; read-out: SRI (serotonin re-uptake inhibition) IC50. The protocol:
A number of compounds were tested for biological activity by their ability to inhibit the uptake of serotonin by human serotonin transporters as follows.
(§1) Human embryonic kidney cells (HEK-293) stably transfected with either the human serotonin transporter (hSERT), noradrenaline transporter (hNET) or dopamine transporter (hDAT) were cultured under standard cell culture techniques (cells were grown at 37° C. and 5% CO2 in DMEM-culture media (supplemented with 10% dialysed foetal calf serum (FCS), 2 mM I-glutamine and 250 μg/ml geneticin)). Cells were harvested for the assay to yield a cell suspension of 750,000 cells/ml.
(§2) All test compounds were dissolved in 100% DMSO and diluted down in assay buffer to give appropriate test concentrations. Assays were carried out in 96-well filter bottom plates. Cells (7500 cells/assay well) were pre-incubated in standard assay buffer containing either test compound, standard inhibitor or compound vehicle (1% DMSO) for 5 minutes. Reactions were started by addition of either ^3H-Serotonin, ^3H-Noradrenaline or ^3H-Dopamine substrates. All reactions were carried out at room temperature in a shaking incubator. […] The quantity of ^3H-substrate incorporated into the cells was then quantified.
(§3) Assay plates were dried in a microwave oven, scintillation fluid added, and radioactivity measured. […]

Test [2] concerns the target T2, noradrenaline transporter (hNET) (Homo sapiens, UniProt P23975).
T2 construct: expressed in transfected cells
Kind of test: Inhibition of 3H-noradrenaline uptake in HEK-293 cells stably transfected with hNET. The settings on record: HEK-293 hNET cells, 3H-Noradrenaline 200 nM, 15 min incubation, room temperature; read-out: NRI (noradrenaline re-uptake inhibition) IC50. On the procedure: as §1
as §2, with “incubator. Incubation times were 5 minutes for the hSERT and hDAT assays and 15 minutes for the hNET assay.” for “incubator.”
as §3

Test [3] concerns the target T3, dopamine transporter (hDAT) (Homo sapiens, UniProt Q01959).
T3 construct: expressed in transfected cells
Kind of test: Inhibition of 3H-dopamine uptake in HEK-293 cells stably transfected with hDAT. The following applies: HEK-293 hDAT cells, 3H-Dopamine 200 nM, 5 min incubation, room temperature; read-out: DRI (dopamine re-uptake inhibition) IC50. The protocol:
as §1
as §2, with “incubator. Incubation times were 5 minutes for the hSERT and hDAT assays and 15 minutes for the hNET assay.” for “incubator.”
as §3

T2 sequence (P23975 whole entry): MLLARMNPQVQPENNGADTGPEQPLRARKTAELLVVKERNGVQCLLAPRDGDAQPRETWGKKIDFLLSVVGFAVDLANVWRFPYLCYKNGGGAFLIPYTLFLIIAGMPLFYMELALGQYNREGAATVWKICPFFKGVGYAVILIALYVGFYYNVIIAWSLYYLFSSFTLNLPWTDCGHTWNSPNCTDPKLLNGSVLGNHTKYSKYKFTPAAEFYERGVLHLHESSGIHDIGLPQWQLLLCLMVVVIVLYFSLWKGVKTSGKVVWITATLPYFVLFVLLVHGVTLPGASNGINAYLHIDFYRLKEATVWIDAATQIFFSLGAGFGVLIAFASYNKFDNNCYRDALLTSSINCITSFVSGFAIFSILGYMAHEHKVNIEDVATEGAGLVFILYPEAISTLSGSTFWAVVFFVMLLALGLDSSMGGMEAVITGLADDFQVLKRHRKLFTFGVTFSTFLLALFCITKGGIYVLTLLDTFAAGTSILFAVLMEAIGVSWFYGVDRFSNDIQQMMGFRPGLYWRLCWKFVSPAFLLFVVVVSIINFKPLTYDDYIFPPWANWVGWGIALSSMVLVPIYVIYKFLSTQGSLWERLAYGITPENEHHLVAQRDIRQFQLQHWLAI
T3 sequence (Q01959 whole entry): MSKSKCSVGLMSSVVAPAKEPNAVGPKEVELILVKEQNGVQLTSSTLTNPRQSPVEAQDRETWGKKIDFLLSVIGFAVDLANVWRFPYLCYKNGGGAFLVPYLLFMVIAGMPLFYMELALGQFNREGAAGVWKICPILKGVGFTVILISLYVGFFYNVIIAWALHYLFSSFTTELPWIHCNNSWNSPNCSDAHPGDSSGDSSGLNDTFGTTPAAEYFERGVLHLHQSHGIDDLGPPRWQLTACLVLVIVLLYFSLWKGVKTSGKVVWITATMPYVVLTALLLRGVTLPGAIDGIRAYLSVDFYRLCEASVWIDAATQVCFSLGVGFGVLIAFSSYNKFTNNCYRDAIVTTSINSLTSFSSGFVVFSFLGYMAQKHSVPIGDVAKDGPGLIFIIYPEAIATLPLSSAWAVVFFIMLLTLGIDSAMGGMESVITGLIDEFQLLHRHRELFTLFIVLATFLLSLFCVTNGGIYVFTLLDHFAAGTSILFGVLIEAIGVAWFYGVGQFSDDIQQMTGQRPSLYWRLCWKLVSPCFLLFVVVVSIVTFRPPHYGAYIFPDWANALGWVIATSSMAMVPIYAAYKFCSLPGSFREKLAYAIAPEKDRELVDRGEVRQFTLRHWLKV
T1 sequence (P31645 whole entry): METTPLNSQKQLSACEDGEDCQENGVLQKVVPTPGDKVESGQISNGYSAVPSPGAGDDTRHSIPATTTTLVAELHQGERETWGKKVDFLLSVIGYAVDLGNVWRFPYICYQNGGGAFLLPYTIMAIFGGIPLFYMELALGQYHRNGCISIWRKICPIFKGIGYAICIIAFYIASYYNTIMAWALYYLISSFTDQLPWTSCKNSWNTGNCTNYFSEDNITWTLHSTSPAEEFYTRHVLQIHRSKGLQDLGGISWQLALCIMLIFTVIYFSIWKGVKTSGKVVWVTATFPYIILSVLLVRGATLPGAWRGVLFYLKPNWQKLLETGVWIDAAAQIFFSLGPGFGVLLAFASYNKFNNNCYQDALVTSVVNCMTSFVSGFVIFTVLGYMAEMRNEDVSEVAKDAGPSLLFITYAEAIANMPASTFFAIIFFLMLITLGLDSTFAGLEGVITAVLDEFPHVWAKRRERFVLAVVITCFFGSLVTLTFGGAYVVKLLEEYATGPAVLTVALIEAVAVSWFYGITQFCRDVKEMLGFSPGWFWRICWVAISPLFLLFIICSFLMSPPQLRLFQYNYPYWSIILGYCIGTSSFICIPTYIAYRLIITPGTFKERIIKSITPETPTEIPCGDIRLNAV

`CSc1ccc(Sc2ccncc2CN(C)C)cc1` [Example 2, N,N-Dimethyl-N-[(4-{[4-(methylsulfanyl)phenyl]sulfanyl}-3-pyridinyl)methyl]amine]: the half-maximal inhibitory concentration (IC50) in test [1] is 2.2 nM; in test [2] it was 564 nM; in test [3] it was 11700 nM.

For orientation: IC50 means the concentration needed to halve the response being measured.

Source of the values: patent US6800652B2, “Diaryl compounds” (Pfizer Inc., priority 2002, dated 2004).
